Biological target: α-glucosidase
Test: α-glucosidase inhibition assay (pNPG substrate, absorbance at 405 nm)
Format: biochemical
Conditions: for IC50: 0.1 M PBS pH 7.4, 37 °C, α-glucosidase 0.2 U/mL, 5 mM pNPG, triplicate, read-out: α-Glucosidase inhibitory activity, IC50 (50% inhibitory concentration)
Procedure: All the assays were carried out under 0.1 M PBS buffer (pH 7.4, Sigma). The samples (10 mM) were dissolved with DMSO (Sigma) and diluted into gradient concentrations with PBS buffer. The pre-reaction mixture consisted of the 130 μL sample with 30 μL α-glucosidase solution (0.2 U/mL, Sigma) and shaken well, then added to a 96-well plate and placed at 37 °C for 10 min in an incubator. Subsequently, 40 μL of 5 mM p-nitrophenyl-α-D-glucopyranoside (pNPG, TCI) was added and further incubated at 37 °C for 20 min. Finally, the α-glucosidase inhibitory activity was determined by measuring the release of […] at 405 nm of the microplate reader. The negative control was prepared by adding PBS buffer instead of the sample in the same way as the test. The blank was prepared by adding PBS buffer instead of pNPG using the same method.

Row | Structure (SMILES) | IC50 | α-glucosidase inhibitory activity in words (at a concentration of 400 μM)
1 | CC(=O)N[C@@H]1C(=O)SC[C@@H]1C [Compound 1, 2S-acetamide-3R-methyl-thiolactone] | > 400 µM | weak inhibitory activity
2 | CC(=O)N[C@H]1C(=O)SC[C@@H]1C [Compound 2, 2R-acetamide-3R-methyl-thiolactone] | 148 µM | –
3 | CC(=O)[C@H]1CC[C@H]2C3=C(CC[C@]12C)[C@@]1(C)CC[C@H](O)C[C@@H]1CC3 [Compound 3, Δ^8,9-3β-hydroxy-5α-17-acetyl steroid] | 280 µM | –
4 | CC(=O)C1CCC2C3=C(CCC12C)C1(C)CCC(O)CC1CC3 (stereo not drawn) [Compound 4, Δ^8,9-3α-hydroxy-5α-17-acetyl steroid] | 86 µM | –
